{
  "source": "ChEMBL document CHEMBL6092203",
  "about": "“Discovery of Novel PROTAC-Based HPK1 Degraders with High Potency and Selectivity for Cancer Immunotherapy” (J Med Chem, 2024)",
  "key": {"MC-38 [1]": {"test_system": "MC-38", "test": "Antitumor activity against mouse MC38 cells implanted in C57BL/6J mouse assessed as tumor growth inhibition at 0.5 mg/kg, po BID measured after 4 weeks", "format": "functional", "settings": "MC-38, 672 h, read-out: TGI"}, "in vivo [2]": {"test": "in vivo", "settings": "male, Sprague-Dawley, rat, po, 2 mg/kg"}, "in vivo [3]": {"test": "in vivo", "settings": "male, Sprague-Dawley, rat, po, 100 mg/kg"}, "[4]": {"test": "Plasma protein binding in dog at 10 uM incubated for 6 hrs by equilibrium dialysis based LC-MS/MS method", "format": "ADME, cell-free, Canis lupus familiaris", "settings": "read-out: PPB (converted)"}, "in vivo [5]": {"test": "in vivo", "settings": "female, Sprague-Dawley, rat, po, 30 mg/kg"}, "[6]": {"test": "Half-life in Sprague-Dawley rat at 2 mg/kg, iv measured upto 24 hrs by LC-MS analysis", "settings": "in vivo"}, "[7]": {"test": "Half-life in Sprague-Dawley rat at 1 mg/kg, po measured upto 24 hrs by LC-MS analysis", "settings": "in vivo"}, "in vivo [8]": {"test": "in vivo", "settings": "Sprague-Dawley, rat, po, 1 mg/kg"}, "in vivo [9]": {"test": "in vivo", "settings": "female, Sprague-Dawley, rat, po, 2 mg/kg"}, "MC-38 [10]": {"test_system": "MC-38", "test": "Antitumor activity against mouse MC38 cells implanted in C57BL/6J mouse assessed as reduction in tumor weight at 0.1 mg/kg, po BID administered for 3 to 4 weeks (reference value: 1.79 +/- 0.24 g)", "format": "functional", "settings": "time 3-4 weeks"}, "Cytochrome P450 2C8": {"target": "T1, Cytochrome P450 2C8 (Homo sapiens, UniProt P10632)", "T1 sequence (P10632 whole entry)": "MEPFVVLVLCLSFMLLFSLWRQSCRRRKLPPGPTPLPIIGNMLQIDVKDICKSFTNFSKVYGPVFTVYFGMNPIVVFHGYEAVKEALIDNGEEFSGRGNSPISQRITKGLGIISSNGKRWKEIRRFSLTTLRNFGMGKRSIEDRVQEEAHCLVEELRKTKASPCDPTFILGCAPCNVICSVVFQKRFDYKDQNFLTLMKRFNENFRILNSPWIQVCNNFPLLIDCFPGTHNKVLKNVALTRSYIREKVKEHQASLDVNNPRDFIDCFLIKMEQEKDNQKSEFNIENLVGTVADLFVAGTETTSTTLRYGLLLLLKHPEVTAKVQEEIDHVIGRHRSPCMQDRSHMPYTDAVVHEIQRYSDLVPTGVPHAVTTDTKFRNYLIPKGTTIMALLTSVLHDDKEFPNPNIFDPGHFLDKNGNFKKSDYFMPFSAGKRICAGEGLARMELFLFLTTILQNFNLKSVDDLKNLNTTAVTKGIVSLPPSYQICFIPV", "test": "Inhibition of CYP2C8 in human liver microsomes using amodiaquine as substrate in presence of NADPH", "format": "ADME, Microsome"}, "[11]": {"test": "Clearance in C57BL/6J mouse at 2 mg/kg, iv measured upto 24 hrs by LC-MS analysis", "settings": "in vivo"}, "[12]": {"test": "Metabolic stability in monkey hepatocytes assessed as intrinsic clearance at 1 uM incubated for 90 mins by LC-MS/MS method", "format": "ADME, cell-based, Macaca mulatta, Hepatocyte", "settings": "rhesus monkey, 1.5 h"}, "MC-38 [13]": {"test_system": "MC-38", "test": "Antitumor activity against mouse MC38 cells implanted in C57BL/6J mouse assessed as tumor weight inhibition rate at 0.1 mg/kg, po BID measured after 4 weeks", "format": "functional", "design": "scale not given: the % may be the effect or the level left"}, "[14]": {"test": "Metabolic stability in mouse liver microsomes assessed as intrinsic clearance at 1 uM incubated for 45 mins by LC-MS/MS method", "format": "ADME, Microsome", "settings": "read-out: CLH"}, "in vivo [15]": {"test": "in vivo", "settings": "C57BL/6J, mouse, po, 10 mg/kg"}, "in vitro [16]": {"test": "in vitro", "settings": "mouse, hepatocytes"}, "[17]": {"test": "Induction of IL-2 secretion in human PBMCs incubated for 24 hrs by ELISA", "format": "functional, cell-based, PBMC"}, "MC-38 [18]": {"test_system": "MC-38", "test": "Antitumor activity against mouse MC38 cells implanted in C57BL/6J mouse assessed as reduction in tumor volume at 0.1 mg/kg, po BID administered for 3 to 4 weeks (reference value: 1549.22 +/- 217.92 mm3)", "format": "functional", "settings": "time 3-4 weeks"}, "[19]": {"test": "Tmax in female Sprague-Dawley rat at 30 mg/kg/day, po measured at day 14", "format": "ADME, organism-based", "settings": "in vivo, time 14 day"}, "in vivo [20]": {"test": "in vivo", "settings": "male, Sprague-Dawley, rat, po, 100 mg/kg", "remark": "listed apart in the source"}, "in vitro [21]": {"test": "in vitro", "settings": "human, liver microsomes"}, "[22]": {"test": "Toxicity in Sprague-Dawley rat assessed as no observable adverse effect level measured after 14 days", "settings": "in vivo, time 14 day"}, "[23]": {"test": "Tmax in male Sprague-Dawley rat at 2 mg/kg/day, po measured at day 14", "format": "ADME, organism-based", "settings": "in vivo, time 14 day"}, "[24]": {"test": "Half-life in Beagle dog at 1 mg/kg, iv measured upto 24 hrs by LC-MS analysis", "settings": "in vivo"}, "[25]": {"test": "Toxicity in C57BL/6J mouse assessed as body weight loss at 0.1 to 0.5 mg/kg, po bid administered for 3 to 4 weeks", "format": "organism-based", "settings": "in vivo, dose lower 0.1 mg/kg, time lower 3 weeks, dose upper 0.5 mg/kg, time upper 4 weeks"}, "[26]": {"test": "Metabolic stability in rat hepatocytes assessed as intrinsic clearance at 1 uM incubated for 90 mins by LC-MS/MS method", "format": "ADME, cell-based, Hepatocyte", "settings": "1.5 h"}, "[27]": {"test": "Tmax in C57BL/6J mouse at 10 mg/kg, po measured upto 24 hrs by LC-MS analysis", "format": "ADME, organism-based", "settings": "in vivo"}, "[28]": {"target": "Protein cereblon/Mitogen-activated protein kinase kinase kinase kinase 1 (Homo sapiens, UniProt Q92918+Q96SW2)", "sequence (Q92918 whole entry, looked up)": "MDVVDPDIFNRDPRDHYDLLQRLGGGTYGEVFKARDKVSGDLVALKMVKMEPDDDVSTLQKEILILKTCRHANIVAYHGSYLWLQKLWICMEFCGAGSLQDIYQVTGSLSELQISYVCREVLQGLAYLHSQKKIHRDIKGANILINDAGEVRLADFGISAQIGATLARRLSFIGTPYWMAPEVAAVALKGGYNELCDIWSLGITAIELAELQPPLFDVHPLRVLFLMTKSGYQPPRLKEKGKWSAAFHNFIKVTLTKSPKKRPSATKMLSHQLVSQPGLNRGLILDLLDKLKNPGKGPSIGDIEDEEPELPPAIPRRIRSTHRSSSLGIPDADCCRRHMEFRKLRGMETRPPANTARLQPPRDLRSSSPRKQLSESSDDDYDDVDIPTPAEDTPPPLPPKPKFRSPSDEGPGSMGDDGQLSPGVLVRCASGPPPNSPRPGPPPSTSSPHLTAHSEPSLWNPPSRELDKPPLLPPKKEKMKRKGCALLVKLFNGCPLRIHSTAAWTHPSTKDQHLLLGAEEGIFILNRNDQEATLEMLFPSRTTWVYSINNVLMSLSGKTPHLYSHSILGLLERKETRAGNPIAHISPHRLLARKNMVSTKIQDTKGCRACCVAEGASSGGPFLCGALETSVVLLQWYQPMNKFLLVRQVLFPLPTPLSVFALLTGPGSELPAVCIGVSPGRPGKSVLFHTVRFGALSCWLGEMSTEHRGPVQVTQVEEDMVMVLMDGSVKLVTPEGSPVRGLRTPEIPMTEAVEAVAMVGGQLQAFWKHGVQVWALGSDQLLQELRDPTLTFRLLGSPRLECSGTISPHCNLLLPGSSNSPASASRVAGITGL", "sequence (Q96SW2 whole entry, looked up)": "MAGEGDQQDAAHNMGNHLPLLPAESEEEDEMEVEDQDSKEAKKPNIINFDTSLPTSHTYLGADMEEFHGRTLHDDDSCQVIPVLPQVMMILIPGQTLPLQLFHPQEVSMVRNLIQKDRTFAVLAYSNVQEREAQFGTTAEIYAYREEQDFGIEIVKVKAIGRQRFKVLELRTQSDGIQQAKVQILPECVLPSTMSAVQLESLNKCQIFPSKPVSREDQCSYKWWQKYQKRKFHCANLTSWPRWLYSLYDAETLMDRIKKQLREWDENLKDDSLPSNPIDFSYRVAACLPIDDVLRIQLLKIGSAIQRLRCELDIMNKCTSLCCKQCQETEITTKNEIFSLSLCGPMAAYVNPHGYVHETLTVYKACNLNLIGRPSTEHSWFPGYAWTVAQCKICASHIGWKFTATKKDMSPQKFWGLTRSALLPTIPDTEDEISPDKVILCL", "test": "PROTAC activity at CRBN/HPK1 in human Jurkat cells assessed as HPK1 degradation at 1 uM pretreated with lenalidomide for 4 hrs followed by compound addition and measured after 24 hrs by Western blotting analysis", "format": "cell-based"}, "[29]": {"test": "Volume of distribution at steady state in Beagle dog at 1 mg/kg, iv measured upto 24 hrs by LC-MS analysis", "format": "ADME, organism-based, Canis lupus familiaris", "settings": "in vivo"}, "[30]": {"test": "Drug distribution in rat lung measured after 0.5 to 6 hrs", "format": "ADME, tissue-based", "settings": "in vivo, time 0.5-6 hrs"}, "in vitro [31]": {"test": "in vitro", "settings": "rhesus monkey, liver microsomes"}, "[32]": {"test": "Plasma protein binding in monkey at 10 uM incubated for 6 hrs by equilibrium dialysis based LC-MS/MS method", "format": "ADME, cell-free, Macaca mulatta", "settings": "rhesus monkey, read-out: PPB (converted)"}, "Jurkat": {"test_system": "Jurkat", "test": "Induction of GCK degradation in human Jurkat cells at 1 to 1000 nM incubated for 24 hrs by Western blotting analysis", "format": "cell-based", "settings": "dose 1-1000 nM"}, "MC-38 [33]": {"test_system": "MC-38", "test": "Antitumor activity against mouse MC38 cells implanted in C57BL/6J mouse assessed as tumor weight inhibition rate at 0.5 mg/kg, po BID measured after 4 weeks", "format": "functional", "design": "scale not given: the % may be the effect or the level left"}, "[34]": {"test": "Tmax in male Sprague-Dawley rat at 100 mg/kg/day, po measured at day 1", "format": "ADME, organism-based", "settings": "in vivo, time 1 day"}, "MC-38 [35]": {"test_system": "MC-38", "test": "Antitumor activity against mouse MC38 cells implanted in C57BL/6J mouse assessed as reduction in tumor volume at 1 mg/kg, po BID administered for 3 to 4 weeks (reference value: 1549.22 +/- 217.92 mm3)", "format": "functional", "settings": "time 3-4 weeks"}},
  "note": "Activity calls are given as the source filed them. The calls are words filed in the database; no cut-off is given here.",
  "data": [
    {"smiles": "O=C1CCN(c2cc(C(=O)N3CCC(CC4CCN(c5ccc(-c6cnc7[nH]cc(-c8cnn(CC(F)(F)F)c8)c7n6)cn5)CC4)CC3)ccc2Cl)C(=O)N1", "values": [
      {"measurement": "inhibition in vivo at 0.5 mg/kg", "setting": "MC-38 [1]", "result": 51.4, "unit": "%"},
      {"measurement": "Cmax at 336 h", "setting": "in vivo [2]", "result": 64.2, "unit": "ng/mL"},
      {"measurement": "Cmax at 24 h", "setting": "in vivo [3]", "result": 8620, "unit": "ng/mL"},
      {"measurement": "fraction unbound at 6 h, 10 µM", "setting": "[4]", "result": 0.0004},
      {"measurement": "AUC at 336 h", "setting": "in vivo [5]", "result": 46000, "unit": "ng·h/mL"},
      {"measurement": "half-life at 24 h", "setting": "[6]", "result": 2.86, "unit": "h"},
      {"measurement": "half-life at 24 h", "setting": "[7]", "result": 5.15, "unit": "h"},
      {"measurement": "Cmax at 24 h", "setting": "in vivo [8]", "result": 98.7, "unit": "ng/mL"},
      {"measurement": "AUC at 336 h", "setting": "in vivo [9]", "result": 645, "unit": "ng·h/mL"},
      {"measurement": "Activity", "setting": "MC-38 [10]", "result": 1.4, "unit": "g"},
      {"measurement": "IC50", "setting": "Cytochrome P450 2C8", "result": "> 10", "unit": "µM"},
      {"measurement": "clearance at 24 h", "setting": "[11]", "result": 6, "unit": "mL/min/kg"},
      {"measurement": "CLH", "setting": "[12]", "result": 8.85, "unit": "µL/min/mg"},
      {"measurement": "Activity", "setting": "MC-38 [13]", "result": 21.84, "unit": "%"},
      {"measurement": "microsomal CLint at 1 µM", "setting": "[14]", "result": 13.4, "unit": "µL/min/mg"},
      {"measurement": "Cmax at 24 h", "setting": "in vivo [15]", "result": 3180, "unit": "ng/mL"},
      {"measurement": "half-life at 1.5 h, 1 µM", "setting": "in vitro [16]", "result": 7.62, "unit": "h"},
      {"measurement": "Emax", "setting": "[17]", "result": 1151.57, "unit": "pg/mL"},
      {"measurement": "Activity", "setting": "MC-38 [18]", "result": 1107.91, "unit": "mm3"},
      {"measurement": "Tmax", "setting": "[19]", "result": 8.67, "unit": "h"},
      {"measurement": "Cmax at 336 h", "setting": "in vivo [20]", "result": 11100, "unit": "ng/mL"},
      {"measurement": "half-life at 0.75 h, 1 µM", "setting": "in vitro [21]", "result": "> 5", "unit": "h"},
      {"measurement": "NOAEL at 336 h", "setting": "[22]", "result": 100, "unit": "mg/kg/day"},
      {"measurement": "Tmax", "setting": "[23]", "result": 10, "unit": "h"},
      {"measurement": "half-life at 24 h", "setting": "[24]", "result": 4.86, "unit": "h"},
      {"measurement": "Activity", "setting": "[25]", "result": "Non-toxic"},
      {"measurement": "CLH", "setting": "[26]", "result": 2.97, "unit": "µL/min/mg"},
      {"measurement": "Tmax", "setting": "[27]", "result": 1, "unit": "h"},
      {"measurement": "Activity", "setting": "[28]", "result": "inactive"},
      {"measurement": "Vdss", "setting": "[29]", "result": 0.386, "unit": "L/kg"},
      {"measurement": "Drug uptake", "setting": "[30]", "result": "Active"},
      {"measurement": "half-life at 0.75 h, 1 µM", "setting": "in vitro [31]", "result": 0.607, "unit": "h"},
      {"measurement": "fraction unbound at 6 h, 10 µM", "setting": "[32]", "result": 0.0002},
      {"measurement": "Activity", "setting": "Jurkat", "result": "inactive"},
      {"measurement": "Activity", "setting": "MC-38 [33]", "result": 42.22, "unit": "%"},
      {"measurement": "Tmax", "setting": "[34]", "result": 7.5, "unit": "h"},
      {"measurement": "Activity", "setting": "MC-38 [35]", "result": 1277.79, "unit": "mm3"}
    ]}
  ]
}
